Measurements reported in patent US10562869B2, “Oxadiazole compounds” (REMYND NV, priority 2014, dated 2020).

Assays:
[1] = tested on: db/db mice; assay: In vivo evaluation in db/db mice (type 2 diabetes model); settings: 15 mg/kg IP, vs vehicle
From the text: For in vivo evaluation of compound efficacy, male BKS.Cg-+Leprdb/Leprdb/OlaHsd mice (db/db mice—Harlan) were used. The db/db phenotype results from a mutation in the leptin receptor gene, leading to a splice variant (Chen, Charlat et al. 1996; Lee, Proenca et al. 1996). The development of type 2 diabetes in db/db mice is associated with reduced insulin levels due to progressive β-cell failure following an initial period of hypersecretion of insulin. Since these mice develop type 2 diabetes in a manner related to pathology development in humans, and the model is accepted as in vivo model for evaluation of novel anti-diabetic treatments by the Food and Drug Administration (FDA, US), it is a highly relevant model for testing candidate drugs for efficacy.
Compounds were administered intraperitoneal (IP) or oral (PO) at a dose of maximally 50 mg/kg. Mice were subjected to metabolic analysis weekly or bi-weekly. These tests included but were not limited to determination of fasting (5 hrs) and non-fasting blood glucose levels, plasma insulin levels, % glycated hemoglobin (HbA1c) levels, glucose tolerance test and insulin sensitivity test.

[2] = tested on: M17_3SYN cells; assay: Paraquat-induced cytotoxicity (LDH) in α-synuclein over-expressing M17_3SYN neuroblastoma cells; type: cell-based, human; settings: Homo sapiens, Neuroblastoma cell, 48 h, toxicity inhibition (LDH) in M17_3SYN cells challenged with 6 mM paraquat, 2 days; read-out: SYN EC50
How it was run: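 Human BE-M17 neuroblastoma cells stably overexpressing wild-type α-synuclein challenged with paraquat (final 6 mM) for 2 days at 37 °C alongside compounds over a concentration range. Cytotoxicity as LDH released relative to total LDH; EC50 from dose-dependent inhibition curve.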

[3] = tested on: INS-1E cells; assay: Cytokine-induced caspase-3/7 activation in INS-1E cells (beta cell stress/apoptosis model, Caspase-Glo 3/7); type: cell-based; settings: Rattus norvegicus, cytokine mix (IFN-γ, IL-1β, TNF-α), 24 hours, caspase 3/7 activity, read-out: CYT EC50
From the text: The INS-1E cell line, a rat insulinoma cell line, has been characterized extensively. INS-1E cells respond to glucose by secreting insulin and, unlike most other immortalized β-cell lines, they do this in a consistent manner over time. The cells are sensitive to hyperglycemia-, free fatty acid (FFA)-, and cytokine-induced stress. Prolonged stress ultimately leads to induction of apoptotic pathways and, if stress is not counter-acted, to apoptosis. Caspase-3 and -7 play a central role downstream where various apoptotic pathways merge. As such, activation (i.e. cleavage) of these caspases forms a relevant primary read-out to evaluate protective activity of compounds against stress-induced apoptosis.
To evaluate the efficacy of different compounds to prevent induction of apoptosis, an in vitro screen was developed in which INS-1E cells were exposed to a cytokine mix (IFN-γ, 5 ng/ml; IL-1β, 20 pg/ml; TNF-α, 0.25 ng/ml). The degree of induction of apoptosis was evaluated using a substrate for cleaved caspase-3 and -7, i.e. a proluminescent caspase-3/7 DEVD aminoluciferin substrate with a thermostable luciferase (Caspase-Glo® 3/7 assay; Promega, cat. G8092).
On day 0, INS-1E cells were plated in a white-walled 96-well microplate (Greiner, cat. 655098) at 20,000 cells per well in 100 μl complete medium (RPMI containing 11 mM glucose supplemented with 5% FCS, 100 IU/ml penicillin, 100 μg/ml streptomycin, 10 mM HEPES, 1 mM Sodium Pyruvate and 50 μM 2-Mercapto-ethanol). On day 2, 100 μl medium containing cytokines and compound dissolved in DMSO was added to the cells. Wells without cytokines containing DMSO and wells with cytokines and DMSO were included to evaluate the degree of caspase 3/7 activation by the cytokine mix. After 24 hours exposure to cytokines and/or compound, Caspase-Glo® 3/7 reagent was added to the cells and caspase activity was determined by measuring luminescence.
To evaluate compound efficacy, the “toxicity window” was calculated by subtracting caspase activity of wells without stressor from activity of wells with stressor but without compound. The amount of caspase activity in the latter wells was normalized to 1 and used as reference. Subsequently, caspase activity in the wells with stressor and varying concentrations of compound was calculated relative to the wells without compound. Plotting caspase activity vs the log 10 of the concentration of compound permitted calculation of the EC50 values for the compounds which typically lied between 0.0001 and 10 μM. Compounds with an EC50<10 μM were considered active.

Compound | Plasma insulin levels ([1]; after 6 weeks of treatment, FIG. 1C) | weight gain (non-fasted body weight) ([1]; FIG. 1A) | Fasted blood glucose levels ([1]; FIG. 1B) | EC50 [2] [nM] | EC50 [3] [nM]
CSc1ccc(S(=O)(=O)N2CCN(c3nc(C4(c5ccc(F)cc5)CC4)no3)CC2)cc1 [Cmpd110, 1-{3-[1-(4-Fluoro-phenyl)-cyclopropyl]-[1,2,4]oxadiazol-5-yl}-4-(4-methylsulfanyl-benzenesulfonyl)-piperazine] | significantly higher | increased | significantly lower | 30 | 10
CSc1ccc(S(=O)(=O)N2CCC3(CC2)CN(c2nc(CC(F)(F)F)no2)C3)cc1 [Cmpd215, 5-(7-((4-(Methylthio)phenyl)sulfonyl)-2,7-diazaspiro[3.5]nonan-2-yl)-3-(2,2,2-trifluoroethyl)-1,2,4-oxadiazole] |  |  |  | 274 | 145
